Laboratory results published in patent US8889732B2, “Fused heterocyclic compounds and thrombopoietin receptor activators” (Nissan Chemical Industries, Ltd., priority 2009, dated 2014).

How the values were obtained:
[1] = target: T1, human thrombopoietin receptor (c-mpl) (Homo sapiens, UniProt P40238); experiment: Stimulation of proliferation of thrombopoietin-dependent cell line UT7/EPO-mpl (WST-8); format: cell-based; details: for EC50: concentration yielding growth rate corresponding to 50% of growth of UT-7/EPO-mpl in the presence of 10 ng/mL TPO, 4 days incubation, WST-8
T1 construct: expressed in transfected cells
T1 sequence (P40238 26-635): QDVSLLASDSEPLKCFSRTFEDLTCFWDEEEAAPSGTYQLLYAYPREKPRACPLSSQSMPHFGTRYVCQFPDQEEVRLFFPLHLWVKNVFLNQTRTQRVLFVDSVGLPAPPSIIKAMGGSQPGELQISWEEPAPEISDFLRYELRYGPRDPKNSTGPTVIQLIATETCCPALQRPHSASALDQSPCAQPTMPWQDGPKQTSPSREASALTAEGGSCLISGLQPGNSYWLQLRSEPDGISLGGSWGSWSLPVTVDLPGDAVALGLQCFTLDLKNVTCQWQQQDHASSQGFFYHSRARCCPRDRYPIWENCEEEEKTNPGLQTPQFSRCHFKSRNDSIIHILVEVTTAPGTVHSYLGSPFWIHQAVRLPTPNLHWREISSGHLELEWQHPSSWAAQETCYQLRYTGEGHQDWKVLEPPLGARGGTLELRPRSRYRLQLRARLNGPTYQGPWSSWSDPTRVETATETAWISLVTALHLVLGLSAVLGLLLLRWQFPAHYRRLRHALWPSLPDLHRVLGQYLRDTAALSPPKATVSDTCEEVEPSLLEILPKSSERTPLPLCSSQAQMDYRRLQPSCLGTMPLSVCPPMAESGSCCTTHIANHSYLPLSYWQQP
Procedure: The responses of thrombopoietin receptor to the compounds of Synthetic Examples of the present invention were assayed using a human leukemic cell line, UT7/EPO-mpl.
(§1) UT7/EPO-mpl is a stable transformed cell line obtained by introducing into human leukemic cell line UT7/EPO a vector that induces expression of human thrombopoietin receptor (c-mpl) under control of cytomegalovirus immediate-early promoter by the method of Takatoku et al. (J. Biol. Chem., 272:7259-7263 (1997)). […] These two cell lines were subcultured in IMDM (Invitrogen) containing 10% fetal bovine serum (Thermo Electron or BioWest) using a CO2 incubator (5% CO2, 37° C.).
(§2) The subcultured cells described above were washed twice with PBS and suspended in IMDM containing 10% fetal bovine serum at a cell density of 6×10^4 cells/ml. The cell suspension was transferred to a 96-well tissue culture plate (CORNING) in 100-μl aliquots. Then either thrombopoietin (Pepro Tech EC) or the compound of Synthetic Examples dissolved in dimethyl sulfoxide were diluted 83-fold with IMDM containing 10% fetal bovine serum and added to the aforementioned cell suspension in 20-μl aliquots. The cell suspension was incubated in a CO2 incubator (5% CO2, 37° C.) for 4 days. Cell proliferation was assayed using WST-8 reagent (Kishida Chemical Co., Ltd.) according to instructions by the manufacturer. A 10-μl aliquot of 5 mM WST-8 reagent solution was added to each well of the tissue culture plate, and the plate was incubated at 37° C. for 4 hours. The formazan pigment generated was detected by measuring the absorbance at 450 nm with a 96-well microplate reader (Nihon Molecular Devices, Spectramax 190).

UT7/EPO = experiment: Proliferation of mother cell line UT7/EPO (no c-mpl); format: cell-based, human; details: UT7/EPO cells without c-mpl
Procedure: as §1
as §2, with “A 10-μl aliquot of 5 mM WST-8 reagent solution was added to each well of the tissue culture plate, and the plate was incubated at 37° C. for 4 hours.” left out

| EC50 [1] [pM] | Proliferation of thrombopoietin-responsive UT7/EPO-mpl cells ([1]; UT7/EPO-mpl cells) | Molecule | Effect on proliferation of UT7/EPO, the mother cell line (UT7/EPO) |
| --- | --- | --- | --- |
| 357 |  | C/C(=N\NC(=O)c1ccc(C(=O)NCc2ccc(C(=O)NCCO)cc2)s1)c1csc(-c2ccc3c(c2)CCCC3)c1O [compound 69] |  |
| 382 |  | C/C(=N\NC(=O)c1ccc(C(=O)NCc2ccc(C(=O)NCCO)cc2)s1)c1csc(-c2ccc3c(c2)CCC3)c1O [compound 70] |  |
| 3970 |  | C/C(=N\NC(=O)c1ccc(C(=O)NCc2ccc(C(=O)NCCO)cc2)s1)c1csc(-c2ccc3c(c2)CCO3)c1O [compound 71] |  |
|  | stimulated | TPO: thrombopoietin (Pepro Tech EC), a cytokine consisting of 332 amino acids | no response |
